Laboratory results as given in patent publication USRE39591E1, “6-O-substituted ketolides having antibacterial activity” (Abbott Laboratories, priority 1996, dated 2007).
Values after ≈ are worked out from the molar mass of the structure shown.

System: up to 32 different microorganisms
Assay: in vitro antibacterial activity (MIC), agar dilution on Brain Heart Infusion (BHI) agar with Steers replicator
Assay type: cell-based
Conditions: unit assumed
Method in brief: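 Erythromycin A served as the same-class reference for test-to-test comparability. Test compound was tested over twelve successive dilutions in BHI agar; plates were incubated 20 to 24 hours at 35°-37° C, with MIC taken as the lowest concentration showing no growth, slight haze, or sparse colonies.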

| SMILES | MIC (organism code AA) [µg/mL] | MIC (organism code BB) [µg/mL] | MIC (organism code CC) [µg/mL] | MIC (organism code DD) [µg/mL] | MIC (organism code EE) [µg/mL] | MIC (organism code FF) [µg/mL] | MIC (organism code GG) [µg/mL] | MIC (organism code HH) [µg/mL] | MIC (organism code II) [µg/mL] | MIC (organism code JJ) [µg/mL] | MIC (organism code KK) [µg/mL] | MIC (organism code LL) [µg/mL] | MIC (organism code MM) [µg/mL] | MIC (organism code NN) [µg/mL] | MIC (organism code OO) [µg/mL] | MIC (organism code PP) [µg/mL] | MIC (organism code QQ) [µg/mL] | MIC (organism code RR) [µg/mL] | MIC (organism code SS) [µg/mL] | MIC (organism code TT) [µg/mL] | other results |
| --- | --- | --- | --- | --- | --- | --- | --- | --- | --- | --- | --- | --- | --- | --- | --- | --- | --- | --- | --- | --- | --- |
| CC[C@H]1OC(=O)[C@H](C)C(=O)[C@H](C)[C@@H](O[C@@H]2O[C@H](C)C[C@H](N(C)C)[C@H]2O)[C@@](C)(OCC#Cc2ccc3ncccc3c2)C[C@@H](C)C(=O)[C@H](C)[C@H]2NC(=O)O[C@@]21C [Example 254, Compound of Formula (IX): L is CO, T is NH, R is —CH2—C≡C-(6-quinolyl)] | 0.1 | 0.1 | > 100 | 0.1 | 0.1 | 0.1 | > 100 | 0.1 | 0.02 | ≤ 0.005 | 0.01 | 0.01 | 0.78 | 0.1 | 0.02 | 0.1 | 25 | 0.2 | 100 | > 100 | MIC (organism code UU): 0.78 µg/mL; MIC (organism code VV): 0.01 µg/mL; MIC (organism code WW): 2 µg/mL; MIC (organism code XX): ≤ 0.004 µg/mL; MIC (organism code YY): ≤ 0.004 µg/mL; MIC (organism code ZZ): 2 µg/mL; MIC (organism code ZZA): 0.25 µg/mL |
| CC[C@H]1OC(=O)[C@H](C)C(=O)[C@H](C)[C@@H](O[C@@H]2O[C@H](C)C[C@H](N(C)C)[C@H]2O)[C@@](C)(OCC#Cc2ccc3nc(C)ccc3c2)C[C@@H](C)C(=O)[C@H](C)[C@H]2NC(=O)O[C@@]21C [Example 255, Compound of Formula (IX): L is CO, T is NH, R is —CH2—C≡C-(2-methyl-6-quinolyl)] | 0.1 | 0.2 | > 100 | 0.2 | 0.2 | 0.2 | > 100 | 0.1 | 0.05 | 0.02 | 0.02 | 0.02 | 50 | 0.2 | 0.05 | 0.2 | 100 | 0.3 | > 100 | > 100 | MIC (organism code UU): 3.1 µg/mL; MIC (organism code VV): 0.05 µg/mL; MIC (organism code XX): 0.03 µg/mL; MIC (organism code YY): 0.03 µg/mL; MIC (organism code ZZ): 16 µg/mL; MIC (organism code ZZA): 0.25 µg/mL |
| CC[C@H]1OC(=O)[C@H](C)C(=O)[C@H](C)[C@@H](O[C@@H]2O[C@H](C)C[C@H](N(C)C)[C@H]2O)[C@@](C)(OCC#Cc2ccc(C(=O)Nc3ccccn3)o2)C[C@@H](C)C(=O)[C@H](C)[C@H]2NC(=O)O[C@@]21C [Example 256] | 0.05 (≈ 0.0608 µM) | 0.05 (≈ 0.0608 µM) | > 100 | 0.05 (≈ 0.0608 µM) | 0.05 (≈ 0.0608 µM) | 0.02 (≈ 0.0243 µM) | > 100 | 0.1 (≈ 0.122 µM) | 0.02 (≈ 0.0243 µM) | 0.01 (≈ 0.0122 µM) | 0.02 (≈ 0.0243 µM) | 0.01 (≈ 0.0122 µM) | 25 (≈ 30.4 µM) | 0.2 (≈ 0.243 µM) | 0.01 (≈ 0.0122 µM) | 0.1 (≈ 0.122 µM) | 100 (≈ 122 µM) | 0.2 (≈ 0.243 µM) | > 100 | > 100 | MIC (organism code UU): 1.56 µg/mL (≈ 1.9 µM); MIC (organism code VV): 0.05 µg/mL (≈ 0.0608 µM); MIC (organism code WW): 2 µg/mL (≈ 2.43 µM); MIC (organism code XX): 0.03 µg/mL (≈ 0.0365 µM); MIC (organism code YY): 0.03 µg/mL (≈ 0.0365 µM); MIC (organism code ZZ): 16 µg/mL (≈ 19.4 µM); MIC (organism code ZZA): 0.25 µg/mL (≈ 0.304 µM) |
| C=C(C#CCO[C@@]1(C)C[C@@H](C)C(=O)[C@H](C)[C@H]2NC(=O)O[C@]2(C)[C@@H](CC)OC(=O)[C@H](C)C(=O)[C@H](C)[C@H]1O[C@@H]1O[C@H](C)C[C@H](N(C)C)[C@H]1O)c1ccccc1 [Example 257, Compound of Formula (IX): L is CO, T is NH, R is —CH2—C≡C-(1-phenylethenyl)] | 0.2 | 0.2 | > 100 | 0.2 | 0.2 | 0.2 | > 100 | 0.2 | 0.1 | 0.01 | 0.05 | 0.01 | 100 | 0.2 | 0.05 | 0.2 | > 100 | 0.78 | > 100 | > 100 | MIC (organism code UU): 0.39 µg/mL; MIC (organism code VV): 0.2 µg/mL; MIC (organism code WW): 8 µg/mL; MIC (organism code XX): 0.125 µg/mL; MIC (organism code YY): 0.125 µg/mL; MIC (organism code ZZ): 128 µg/mL; MIC (organism code ZZA): 0.5 µg/mL |
| CC[C@H]1OC(=O)[C@H](C)C(=O)[C@H](C)[C@@H](O[C@@H]2O[C@H](C)C[C@H](N(C)C)[C@H]2O)[C@@](C)(OCC#CBr)C[C@@H](C)C(=O)[C@H](C)[C@H]2NC(=O)O[C@@]21C [Example 258, Compound of Formula (IX): L is CO, T is NH, R is —CH2—C≡C—Br] | 0.78 | 0.39 | > 100 | 0.78 | 0.39 | 0.78 | > 100 | 0.78 | 0.39 | 0.05 | 0.1 | 0.05 | > 100 | 0.2 | 0.1 | 0.39 | > 100 | 0.78 | > 100 | > 100 | MIC (organism code UU): 12.5 µg/mL; MIC (organism code VV): 0.39 µg/mL; MIC (organism code WW): 32 µg/mL; MIC (organism code XX): 0.03 µg/mL; MIC (organism code YY): 0.03 µg/mL; MIC (organism code ZZ): > 128 µg/mL; MIC (organism code ZZA): 0.125 µg/mL |
| CC[C@H]1OC(=O)[C@H](C)C(=O)[C@H](C)[C@@H](O[C@@H]2O[C@H](C)C[C@H](N(C)C)[C@H]2O)[C@@](C)(OCC2COC(C)(C)O2)C[C@@H](C)C(=O)[C@H](C)[C@H]2NC(=O)O[C@@]21C (some centres unmarked) [Example 259, Compound of Formula (IX): L is CO, T is NH, R is —CH2-(2,2-dimethyl-1,3-dioxolan-4-yl)] | 6.2 | 6.2 | > 100 | 12.5 | 6.2 | 6.2 | > 100 | 6.2 | 0.78 | 0.39 | 0.78 | 0.39 | > 100 | 1.56 | 0.78 | 1.56 | > 100 | 1.56 | > 100 | > 100 | MIC (organism code UU): 12.5 µg/mL; MIC (organism code VV): 3.1 µg/mL; MIC (organism code WW): 128 µg/mL; MIC (organism code XX): 1 µg/mL; MIC (organism code YY): 1 µg/mL; MIC (organism code ZZ): > 128 µg/mL; MIC (organism code ZZA): 4 µg/mL |
| C=CCO[C@@]1(C)C[C@@H](C)C(=O)[C@H](C)[C@H]2N(N)C(=O)O[C@]2(C)[C@@H](CC)OC(=O)[C@H](C)C(=O)[C@H](C)[C@H]1O[C@@H]1O[C@H](C)C[C@H](N(C)C)[C@H]1O [Example 262, Compound of Formula (IX): L is CO, T is N(NH2), R is —CH CH═CH2] | 0.78 | 0.78 | > 100 | 0.78 | 0.78 | 0.78 | > 100 | 0.78 | 0.39 | ≤ 0.005 | 0.05 | 0.1 | > 100 | 0.78 | 0.1 | 0.39 | > 100 | 1.56 | > 100 | > 100 | MIC (organism code UU): 6.2 µg/mL; MIC (organism code VV): 0.39 µg/mL; MIC (organism code WW): 16 µg/mL; MIC (organism code XX): 0.03 µg/mL; MIC (organism code YY): 0.03 µg/mL; MIC (organism code ZZ): > 128 µg/mL; MIC (organism code ZZA): 0.5 µg/mL |
| CC[C@H]1OC(=O)[C@H](C)C(=O)[C@H](C)[C@@H](O[C@@H]2O[C@H](C)C[C@H](N(C)C)[C@H]2O)[C@@](C)(OCC=Cc2cnc3ccccc3c2)C[C@@H](C)C(=O)[C@H](C)[C@H]2N(N)C(=O)O[C@]12C [Example 263, Compound of Formula (IX): L is CO, T is N(NH2), R is —CH2CH═CH-(3-quinolyl)] | 0.1 | 0.1 | > 100 | 0.1 | 0.1 | 0.05 | > 100 | 0.1 | 0.01 | 0.01 | 0.02 | 0.02 | 50 | 0.2 | 0.02 | 0.2 | > 100 | 0.78 | > 100 | > 100 | MIC (organism code UU): 0.78 µg/mL; MIC (organism code VV): 0.2 µg/mL; MIC (organism code WW): 4 µg/mL; MIC (organism code XX): 0.015 µg/mL; MIC (organism code YY): 0.015 µg/mL; MIC (organism code ZZ): > 128 µg/mL; MIC (organism code ZZA): 0.25 µg/mL |
| CCC1OC(=O)C(C)C(=O)C(C)C(OC2OC(C)CC(N(C)C)C2O)C(C)(OCC=Cc2ccc3ncc(-c4ccccc4)cc3c2)CC(C)C(=O)C(C)C2NC(=O)OC12C (centres unmarked) [Example 273, Compound of Formula (IX): L is CO, T is NH2, R is —CH2CH═CH-(3-phenyl-6-quinolyl)] | 0.2 | 0.2 | > 100 | 0.2 | 0.2 | 0.2 | > 100 | 0.2 | 0.1 | 0.02 | 0.02 | 0.05 | 12.5 | 0.39 | 0.05 | 0.39 | > 100 | 0.78 | > 100 | > 100 | MIC (organism code UU): 0.78 µg/mL; MIC (organism code VV): 0.39 µg/mL; MIC (organism code WW): 8 µg/mL; MIC (organism code XX): 0.03 µg/mL; MIC (organism code YY): 0.03 µg/mL; MIC (organism code ZZ): 16 µg/mL; MIC (organism code ZZA): 0.5 µg/mL |
